Test results taken from patent publication US20200255489A1, “Novel Senolytic Peptides” (priority 2017, published 2020).
Where a SMILES comes first, the peptide text is derived from it. [ ]: non-standard residue; d: D form.

Tests used:
[1] = tested on: senescent and non-senescent IMR90 cells; assay: XTT viability assay on Doxorubicin induced senescent and non-senescent IMR90 fibroblasts; format: cell-based, human; conditions: senescence by 100 NM Doxorubicin, total doses 0 to 100 pM on 3 consecutive days, XTT after 7 days
Protocol: IMR-90 cells (ATCC #CCL-186, a diploid primary human fibroblast adherent cell line derived from fetal lung tissue) were treated with 100 NM Doxorubicin twice every other day for senescence induction. […] Later these cells were used for experiments comparing them to their non-Doxorubicin (non-senescent) treated counterparts. Senescent and non-senescent IMR90 fibroblasts were plated for XTT viability assays. 7000 senescent (obtained as described above) and 2000 non-senescent IMR90 fibroblasts were plated in 96-well plates incubated. The cells were treated with mock (PBS) or the Senolytic Peptide(s) at total doses ranging from 0 to 100 pM. The mock and peptide treatments were carried out for 3 consecutive days (24, 48 and 72 hours) after plating. After treatment period, the cells were incubated for 7 days until XTT-based viability was analyzed according to the manufacturer's instructions. […]
(§1) WI-38 cells (ATCC #CCL-75, a diploid primary human fibroblast adherent cell line derived from fetal lung tissue) and IMR90 cells (ATCC #CCL-186, a diploid primary human fibroblast adherent cell line derived from fetal lung tissue) were treated with a chemotherapy agent, 100 NM Doxorubicin twice every other day to induce senescence. […] After treatment period, the cells were incubated for 7 days until XTT-based viability was analyzed according to the manufacturer's instructions. […]

[2] = tested on: senescent and non-senescent WI-38 cells; assay: XTT viability assay on Doxorubicin induced senescent and non-senescent WI-38 fibroblasts; format: cell-based, human; conditions: senescence by 100 NM Doxorubicin, total doses 0 to 100 pM on 3 consecutive days, XTT after 7 days
Protocol: WI-38 cells (ATCC #CCL-75, a diploid primary human fibroblast adherent cell line derived from fetal lung tissue) were treated with a chemotherapy agent, 100 NM Doxorubicin twice every other day to induce senescence. […] Later these cells were used for experiments comparing them to their non-Doxorubicin (non-senescent) treated counterparts. Senescent and non-senescent WI-38 fibroblasts were plated for XTT viability assays. 7000 senescent (obtained as described above) and 2000 non-senescent WI-38 fibroblasts were plated in 96-well plates incubated. The cells were treated with mock (PBS) or the Senolytic Peptide (SEQ ID NO: 11) at total doses ranging from 0 to 100 pM. The mock and peptide treatments were carried out for 3 consecutive days (24, 48 and 72 hours) after plating. After treatment period, the cells were incubated for 7 days until XTT-based viability was analyzed according to the manufacturer's instructions. […]
as §1

[3] = tested on: Doxorubicin induced renal senescence; assay: Doxorubicin induced chemotoxicity / renal senescence in mice; format: in vivo; conditions: male BALB/c mice, doxorubicin 8 mg/kg i.p. twice
Protocol: This study was performed in strict accordance with the protocol approved by the TUBITAK-MAM Animal Ethics Committee. All the mice used in this study were of a BALB/c background at 8-12 weeks of age. All mice were kept in group housing until the start of the experiment after which they were placed in separate cages (4 mice per cage). Only male mice were used throughout the study. Where feasible, littermates were used. All mice were randomly assigned to experimental group. Mice were fed ad libidum. Initial weights of the mice were recorded. Mice were divided into three groups (A-No Treatment, B-Doxorubicin Treatment+Mock Treatment, C-Doxorubicin Treatment+Senolytic Peptide Treatment). Doxorubicin induced chemotoxicity was used for the induction of renal senescence in mice. Mice in Group B and C were intraperitoneally administered with doxorubicin (8 mg/kg) twice (at 0 and 10th day). Weights of the mice were recorded three times a week. 24 days after 2nd Doxorubicin treatment, PBS (mock Treatment) was administered intravenously to Group B and Senolytic Peptide (SEQ ID NO: 12) (3×10 mg/kg) was administered to Group C in three days (every other day) (FIG. 17A). The mice health, activity and appearance were monitored and they were sacrificed 14 days later. Gross pathology and pathology of the mice analysed. Mice organs and tissues are flash-frozen in liquid nitrogen and embedded in OCT and kept at −80 C. 10 micron thick mid-sagittal cryo-sections of the kidney were taken and SA-B-Gal activity was assayed as in Example 1-3. Doxorubicin induced alopecia and caused weight loss in mice and both conditions are reversed upon the Senolytic Peptide (SEQ ID NO: 12) Treatment (FIG. 17B).

[4] = Acute Systemic Toxicity Test (ISO 10993-11); format: in vivo, mice (BALB/c); conditions: BALB/c
Protocol: Senolytic Peptides were evaluated for toxicity according to Acute Sytemic Toxicity Test (ISO 10993-11). This study was performed in strict accordance with the protocol approved by the TUBITAK-MAM Animal Ethics Committee. All the mice used in this study were of a BALB/c background at 8-12 weeks of age. All mice were kept in group housing until the start of the experiment after which they were placed in separate cages (5 mice per cage). The Senolytic Peptide (SEQ ID NO: 11) is administered intravenously using a mice model (BALB/c) at doses of 1, 10, 50 and 100 mg/kg and vehicle alone is also administered using single injections (n=5, per group). Control and Senolytic Peptide (SEQ ID NO: 11) injected mice were sacrificed 24 hours later for pathological examination. […] Blood samples were subsequently collected for determination and analysis of hematological and biochemical parameters. Plasma alanine aminotransferase (ALT), aspartate aminotransferase (AST), alkaline phosphatase (ALP) activities and blood urea, glucose, triglyceride levels were determined, inter alia, full hematological parameters.

[5] = peptide 3x10 mg/kg every other day

Compound | effect on viability of senescent versus non-senescent cells (XTT) [1] | effect on viability of senescent versus non-senescent cells (XTT) [2] | Doxorubicin induced alopecia [3, 5] | Doxorubicin induced weight loss [3, 5] | senescent cells in kidneys (SA-B-Gal activity of kidney sections) ([3]; peptide 3x10 mg/kg, sacrificed 14 days later) | toxicity to the physical appearance of the mice ([4]; single intravenous injection 1, 10, 50 and 100 mg/kg, within 24 hours of injection) | toxicity by hematological parameters, AST, ALT, ALP levels and gross pathology ([4]; single intravenous injection, even at 100 mg/kg, 24 hours)
PRKGGSRRRAWGNQRYARLIRQAIESAPEKRLTLA (PRKGGSRRRAWGNQRYARLIRQAIESAPEKRLTLA; Based on Homo sapiens sequence) [SEQ ID NO: 12] | selectively decreased the viability | selectively decreased the viability | reversed | reversed | cleared senescent cells in kidneys | – | –
CC(C)C[C@H](NC(=O)[C@@H](NC(=O)[C@H](CC(C)C)NC(=O)[C@H](CCCNC(=N)N)NC(=O)[C@H](CCCCN)NC(=O)[C@H](CCCNC(=N)N)NC(=O)[C@@H]1CCCN1C(=O)[C@H](C)NC(=O)[C@H](CCCNC(=N)N)NC(=O)[C@H](CCCNC(=N)N)NC(=O)[C@H](CCCNC(=N)N)NC(=O)[C@H](CCCNC(=N)N)NC(=O)[C@H](CCCNC(=N)N)NC(=O)[C@H](CCCNC(=N)N)NC(=O)[C@H](CCCNC(=N)N)NC(=O)[C@H](CCCNC(=N)N)NC(=O)[C@H](CCCNC(=N)N)NC(=O)[C@H](CCCNC(=N)N)NC(=O)[C@H](CCCNC(=N)N)NC(=O)[C@H](CCCNC(=N)N)NC(=O)[C@H](CCCNC(=N)N)NC(=O)[C@H](CCCNC(=N)N)NC(=O)CNC(=O)[C@H](Cc1c[nH]c2ccccc12)NC(=O)[C@H](C)NC(=O)[C@H](CCCNC(=N)N)NC(=O)[C@H](CCCNC(=N)N)NC(=O)[C@H](CCCNC(=N)N)NC(=O)[C@H](CCCNC(=N)N)NC(=O)CNC(=O)CNC(=O)[C@H](CCCCN)NC(=O)[C@H](CCCNC(=N)N)NC(=O)[C@@H]1CCCN1C(=O)[C@H](N)CCCNC(=N)N)[C@@H](C)O)C(=O)O [SEQ ID NO: 11, dRPRKGGRRRR AWGRRRRRRR RRRRRRRAPR KRLTL] (H-[dR]PRKGGRRRRAWGRRRRRRRRRRRRRRAPRKRLTL-OH) | – | – | – | – | – | No toxicity | no toxicity
